In patent US4146501A, “Process for isolating and purifying taste bud receptors for screening and evaluating tastants” (priority 1976, dated 1979):
Entries after “also recorded” stand apart in the source; their conditions may differ.

What was measured:
[1] = tested on: taste bud P4(B) subfractions; assay: Specific binding: competition of 14C sugars or SSS with unlabeled homologous and heterologous sugars, Scatchard analysis; parameters: species or system bovine; settings: for specific binding (competition of 14C sugar or SSS with homologous unlabeled sugar or SSS): taste bud P4(B), FIG. 7; for competition of unlabeled sugar with fructose binding / competition of unlabeled sugar with sucrose binding / competition of unlabeled sugar with glucose binding: FIG. 8, in words; for Kd: Scatchard plot, mean ± 1 SEM, read-out: Kd (dissociation constant); for Kd / q (concentration of sugar or SSS bound per mg subfraction protein): single class of sites; for Inhibition (%) of 14C Fructose binding by unlabelled sugar / Inhibition (%) of 14C Glucose binding by unlabelled sugar / Inhibition (%) of 14C Sucrose binding by unlabelled sugar: maximal concentration of unlabelled sugar, range of values; for Relative Binding Inhibition: homologous set at 100
[2] = tested on: epithelial tissue P4(B) subfractions; assay: Specific binding: competition of 14C sugars or SSS with unlabeled homologous sugars (epithelial control); parameters: species or system bovine; settings: FIG. 7
Method: All binding studies were carried out in plastic micro test tubes in a constant temperature shaking bath. For these studies KRB, suspensions of the initial filtrates, subfractions and ^14 C labeled and/or unlabeled sugars were incubated in a final volume of 100 μl. After incubation the tubes were placed in an ice bath, centrifuged, the supernatant aspirated and 10 μl KRB layered on top of the pellet. The KRB was then aspirated, the top of the test tube cut off with a razor blade just above the bellet, placed into 10 ml Aquasol (New England Nuclear Corp., Boston, Mass.) and the radioactivity determined in a liquid scintillation spectrophotometer. Controls, without filtrates or subfractions, were also included.

[3] = cited from earlier work
[4] = tested on: non-taste bud bearing epithelial tissue filtrates and B subfractions [P2,4(B)]; assay: Binding of 14C sugars to non-taste bud bearing epithelial tissue filtrates and B subfractions (control); parameters: species or system bovine; settings: Epi; for 14C sugar binding: 30 min at 30° C
Method: (§1) The following procedure was utilized in tastant evaluation according to the process of this invention: Protein concentrations were determined by the methods of Lowry et al., (1951) J. Biol. […] According to density, physical appearance as determined by using electron microscopic morphology enzymatic activity and chemical analysis, B subfractions from taste buds and epithelial tissues achieved the greatest membrane purification compared with other subfractions. Among the taste bud B subfractions, P4(B) was morphologically more homogeneous with respect to membranes than P3(B) whereas P2(B) was the least homogeneous of all. Epithelial tissue B subfractions contained mainly fibrous tissue and few differences were found in morphology, density, enzymatic activity or chemical analysis between P2(B) or P4(B) subfractions. Taste bud and epithelial tissue D subfractions contained relatively few membrane fragments compared to the large amount of other cellular organelles present and therefore were not included in these studies. […] Each filtrate and subfraction was washed three times with calcium free, 0.2 M Krebs-Ringer bicarbonate (KRB) pH 7.4, suspended in the same buffer in a final volume of 2 ml and frozen in liquid nitrogen. No detectable change in binding characteristics from suspensions of taste bud or epithelial tissue fractions was observed after storage at -80° for as long as two months. All binding studies were carried out in plastic micro test tubes in a constant temperature shaking bath. For these studies KRB, suspensions of the initial filtrates, subfractions and ^14 C labeled and/or unlabeled sugars were incubated in a final volume of 100 μl. After incubation the tubes were placed in an ice bath, centrifuged, the supernatant aspirated and 10 μl KRB layered on top of the pellet. The KRB was then aspirated, the top of the test tube cut off with a razor blade just above the bellet, placed into 10 ml Aquasol (New England Nuclear Corp., Boston, Mass.) and the radioactivity determined in a liquid scintillation spectrophotometer. Controls, without filtrates or subfractions, were also included. […] The tubes were then placed in an ice bath for 3 minutes, and then centrifuged at 15,000 rpm for 6 min.

[5] = tested on: taste bud filtrates and B subfractions [P2,3,4(B)]; assay: Binding of 14C sugars to taste bud filtrates and B subfractions; parameters: species or system bovine; settings: for 14C sugar binding / Relative enrichment of sugar binding compared to the initial filtrate: Bud; for 14C sugar binding: 30 min at 30° C
Method: as §1

[6] = tested on: taste bud P4(B) subfractions; assay: Displacement of bound 14C sucrose by unlabeled sucrose; type: binding, bovine; settings: after addition of unlabeled sucrose (0.01-1 mM), FIG. 5; 20 min
Method: (§2) All binding studies were carried out in plastic micro test tubes in a constant temperature shaking bath. For these studies KRB, suspensions of the initial filtrates, subfractions and ^14 C labeled and/or unlabeled sugars were incubated in a final volume of 100 μl. After incubation the tubes were placed in an ice bath, centrifuged, the supernatant aspirated and 10 μl KRB layered on top of the pellet.
(§3) The KRB was then aspirated, the top of the test tube cut off with a razor blade just above the bellet, placed into 10 ml Aquasol (New England Nuclear Corp., Boston, Mass.) and the radioactivity determined in a liquid scintillation spectrophotometer. Controls, without filtrates or subfractions, were also included. These controls represent background radioactivity composed mainly of ^14 C sugars bound to the walls of the plastic test tubes. This background radioactivity was always found to be less than 1% of the lowest level obtained in any study with added tissue fractions. Calculations of ^14 C sugar binding also included a correction for non-specific binding (i.e., ^14 C sugar binding not inhibited by an excess of the unlabeled homologous sugar, which occurred when tissue suspensions were used. This value (40%) was the mean calculated from the results of 56 duplicate experiments. […]

[7] = tested on: epithelial P4(B) subfractions; assay: Displacement of bound 14C sucrose by unlabeled sucrose (epithelial control); type: binding, bovine
Method: as §2, §3

[8] = behavioral basis, cow; cited from earlier work
[9] = tested on: taste bud subfraction P4(B); assay: Time and temperature effects on 14C sucrose binding; parameters: species or system bovine; settings: 26 μM 14C sucrose
Method: as §2, §3

[10] = section FRUCTOSE (as the 14C sugar per footnote) with each unlabelled sugar
[11] = section SUCROSE (as the 14C sugar per footnote) with each unlabelled sugar
[12] = Filtrate, 14C glucose 200 μM, fructose 400 μM, sucrose 26 μM

SMILES: OC[C@H]1O[C@@H](O[C@H]2[C@H](O)[C@@H](O)C(O)O[C@@H]2CO)[C@H](O)[C@@H](O)[C@H]1O (some centres unmarked) [lactose]
- specific binding (competition of 14C sugar or SSS with homologous unlabeled sugar or SSS) [1]: did not compete; also recorded: did not bind specifically
- specific binding (competition of 14C sugar or SSS with homologous unlabeled sugar or SSS) [2]: did not compete; also recorded: did not bind specifically

SMILES: OC[C@H]1OC(O)[C@H](O)[C@@H](O)[C@@H]1O (some centres unmarked) [Glucose, glucose]
- competition of unlabeled sugar with fructose binding [1]: did not compete
- competition of unlabeled sugar with sucrose binding [1]: did not compete
- Kd [1]: 3.4 ± 1.1 mM
- Inhibition (%) of 14C Fructose binding by unlabelled sugar [1]: 14-20%
- Inhibition (%) of 14C Glucose binding by unlabelled sugar [1]: 70-80%
- Inhibition (%) of 14C Sucrose binding by unlabelled sugar [1]: 14-20%
- Inhibition (%) of 14C Glucose binding by unlabelled sugar ([1]; listed as glucose): eighty
- Relative Binding Inhibition [1, 10]: 51%
- Relative Binding Inhibition ([1]; section GLUCOSE (as the 14C sugar per footnote) with each unlabelled sugar): 100%
- Relative Binding Inhibition [1, 11]: 32%
- q (concentration of sugar or SSS bound per mg subfraction protein) [1]: 2.5 ± 0.5 mM/mg protein
- specific binding (competition of 14C sugar or SSS with homologous unlabeled sugar or SSS) [1]: occurred
- Recognition thresholds in man [3]: 0.01 to 0.03 M
- 14C sugar binding [4, 12]: 22000 cpm/mg protein
- Relative enrichment of sugar binding compared to the initial filtrate ([4]; P2(B)): 1.3
- 14C sugar binding ([4]; P2(B)): 29000 cpm/mg protein
- Relative enrichment of sugar binding compared to the initial filtrate ([4]; P4(B)): 0.8
- 14C sugar binding ([4]; P4(B)): 17000 cpm/mg protein
- 14C sugar binding [5, 12]: 37000 cpm/mg protein
- Relative enrichment of sugar binding compared to the initial filtrate ([5]; P2(B)): 3.2
- 14C sugar binding ([5]; P2(B)): 120000 cpm/mg protein
- Relative enrichment of sugar binding compared to the initial filtrate ([5]; P3(B)): 9.7
- 14C sugar binding ([5]; P3(B)): 360000 cpm/mg protein
- Relative enrichment of sugar binding compared to the initial filtrate ([5]; P4(B)): 9.4
- 14C sugar binding ([5]; P4(B)): 348000 cpm/mg protein

SMILES: OC[C@H]1O[C@@](CO)(O[C@H]2O[C@H](CO)[C@@H](O)[C@H](O)[C@H]2O)[C@@H](O)[C@@H]1O [Sucrose, sucrose]
- maximum displacement of the 14C sucrose initially bound [6]: about 80%
- competition of unlabeled sugar with fructose binding [1]: competed with both glucose and fructose
- competition of unlabeled sugar with glucose binding [1]: competed with both glucose and fructose
- Kd [1]: 1.1 ± 0.4 mM
- Inhibition (%) of 14C Fructose binding by unlabelled sugar [1]: 50-60%
- Inhibition (%) of 14C Glucose binding by unlabelled sugar [1]: 60-65%
- Inhibition (%) of 14C Sucrose binding by unlabelled sugar [1]: 70-80%
- Inhibition (%) of 14C Sucrose binding by unlabelled sugar ([1]; listed as sucrose): about 80%
- Relative Binding Inhibition [1, 11]: 100%
- q (concentration of sugar or SSS bound per mg subfraction protein) [1]: 51 ± 8 mM/mg protein
- specific binding (competition of 14C sugar or SSS with homologous unlabeled sugar or SSS) [1]: occurred
- reversal of 14C sucrose binding by excess unlabeled sucrose [7]: could not be reversed
- Recognition thresholds in man [3]: 0.01 to 0.03 M
- detection thresholds in normal man ([3]; reported as low as): ≥ 5 mM
- 14C sugar binding [4, 12]: 33000 cpm/mg protein
- Relative enrichment of sugar binding compared to the initial filtrate ([4]; P2(B)): 1.1
- 14C sugar binding ([4]; P2(B)): 37000 cpm/mg protein
- Relative enrichment of sugar binding compared to the initial filtrate ([4]; P4(B)): 0.5
- 14C sugar binding ([4]; P4(B)): 18000 cpm/mg protein
- 14C sugar binding [5, 12]: 36000 cpm/mg protein
- Relative enrichment of sugar binding compared to the initial filtrate ([5]; P2(B)): 3.1
- 14C sugar binding ([5]; P2(B)): 113000 cpm/mg protein
- Relative enrichment of sugar binding compared to the initial filtrate ([5]; P3(B)): 7.0
- 14C sugar binding ([5]; P3(B)): 255000 cpm/mg protein
- Relative enrichment of sugar binding compared to the initial filtrate ([5]; P4(B)): 23.8
- 14C sugar binding ([5]; P4(B)): 868000 cpm/mg protein
- increase in sugar binding compared to the initial filtrate ([5]; taste bud subfraction P3(B)): 7 fold
- increase in sugar binding compared to the initial filtrate ([5]; taste bud subfraction P4(B)): 24 fold
- bovine discrimination thresholds [8]: 0.03 M
- increase of sucrose binding activity following increase in incubation temperature from 0° C. to 30° C. ([9]; FIG. 3): four
- time to plateau of 14C sucrose binding ([9]; at 30° C.): about 25 min

SMILES: O=C(CO)[C@@H](O)[C@H](O)[C@H](O)CO [Fructose, fructose]
- competition of unlabeled sugar with glucose binding [1]: competed with glucose
- competition of unlabeled sugar with sucrose binding [1]: did not
- Kd [1]: 1.8 ± 0.9 mM
- Inhibition (%) of 14C Fructose binding by unlabelled sugar [1]: 70-80%
- Inhibition (%) of 14C Glucose binding by unlabelled sugar [1]: 36-40%
- Inhibition (%) of 14C Sucrose binding by unlabelled sugar [1]: 14-20%
- Inhibition (%) of 14C Fructose binding by unlabelled sugar ([1]; listed as fructose): about 80%
- Relative Binding Inhibition [1, 10]: 100%
- Relative Binding Inhibition [1, 11]: 59%
- q (concentration of sugar or SSS bound per mg subfraction protein) [1]: 10.5 ± 1.2 mM/mg protein
- specific binding (competition of 14C sugar or SSS with homologous unlabeled sugar or SSS) [1]: occurred
- Recognition thresholds in man [3]: 0.01 to 0.03 M
- 14C sugar binding [4, 12]: 88000 cpm/mg protein
- Relative enrichment of sugar binding compared to the initial filtrate ([4]; P2(B)): 1.1
- 14C sugar binding ([4]; P2(B)): 95000 cpm/mg protein
- Relative enrichment of sugar binding compared to the initial filtrate ([4]; P4(B)): 0.9
- 14C sugar binding ([4]; P4(B)): 78000 cpm/mg protein
- 14C sugar binding [5, 12]: 153000 cpm/mg protein
- Relative enrichment of sugar binding compared to the initial filtrate ([5]; P2(B)): 3.7
- 14C sugar binding ([5]; P2(B)): 569000 cpm/mg protein
- Relative enrichment of sugar binding compared to the initial filtrate ([5]; P3(B)): 8.5
- 14C sugar binding ([5]; P3(B)): 1.3e+06 cpm/mg protein
- Relative enrichment of sugar binding compared to the initial filtrate ([5]; P4(B)): 17.8
- 14C sugar binding ([5]; P4(B)): 2.72e+06 cpm/mg protein
- bovine discrimination thresholds [8]: 0.06 M
